This assay concerns CD2F1 mice, L1210 leukemia ip, survival T/C. The assay can be described thus: NCI In Vivo Anticancer Drug Screen. Data for tumor model L1210 Leukemia (intraperitoneal) in CD2F1 (CDF1) mice. To be noted: higher = longer survival. Summed up: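 Read-out first: treated-group measurement over vehicle-control measurement, expressed as a ratio. Animals bore a transplanted tumor line and were dosed with compound or vehicle.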

[1] abbreviates: endpoint: mean survival time, dose: 100.0 mg/kg/injection, schedule: Q04DX003 (ip), vehicle: saline with Tween-80.
The mark [2] stands for this setting: endpoint: mean survival time, dose: 200.0 mg/kg/injection, schedule: Q04DX003 (ip), vehicle: saline with Tween-80.
Setting [3] is: endpoint: mean survival time, dose: 400.0 mg/kg/injection, schedule: Q04DX003 (ip), vehicle: saline with Tween-80.
The mark [4] stands for this setting: endpoint: mean survival time, dose: 100.0 mg/kg/injection, schedule: Q01DX009 (ip), vehicle: saline with Tween-80.
Where [5] appears, read: endpoint: mean survival time, dose: 200.0 mg/kg/injection, schedule: Q01DX009 (ip), vehicle: saline with Tween-80.
Where [6] appears, read: endpoint: mean survival time, dose: 400.0 mg/kg/injection, schedule: Q01DX009 (ip), vehicle: saline with Tween-80.
Setting [7] is: endpoint: mean survival time, dose: 12.5 mg/kg/injection, schedule: Q01DX009 (ip), vehicle: saline with Tween-80.
Setting [8] is: endpoint: mean survival time, dose: 50.0 mg/kg/injection, schedule: Q01DX009 (ip), vehicle: saline with Tween-80.
The mark [9] stands for this setting: endpoint: mean survival time, dose: 100.0 mg/kg/injection, schedule: Q04DX002 (ip), vehicle: saline with Tween-80.
Setting [10] is: endpoint: mean survival time, dose: 200.0 mg/kg/injection, schedule: Q04DX002 (ip), vehicle: saline with Tween-80.
[11] abbreviates: endpoint: mean survival time, dose: 400.0 mg/kg/injection, schedule: Q04DX002 (ip), vehicle: saline with Tween-80.

Several values for one entry are separate records, joined by “and”; a condition that tells them apart may be missing. Equal values may be shown once. Inconclusive results and toxic doses are left out.

In the case of `CN(Cc1cnc2nc(N)nc(N)c2c1)c1ccc(C(=O)NC(CCC(=O)O)C(=O)O)cc1` (stereo not given), the T/C was 158 % of control (endpoint: median survival time, dose: 4.0 mg/kg/injection, schedule: Q01DX005 (ip), vehicle: other) and 158 % of control (endpoint: median survival time, dose: 8.0 mg/kg/injection, schedule: Q01DX005 (ip), vehicle: other).

As to `CN(C)N=Nc1cc(C(N)=O)cc(C(N)=O)c1`, the T/C (endpoint: mean survival time, dose: 18.75 mg/kg/injection, schedule: Q01DX009 (ip), vehicle: Klucel (hydroxypropylcellulose) (HPC)) is 101 % of control; the T/C (endpoint: mean survival time, dose: 37.5 mg/kg/injection, schedule: Q01DX009 (ip), vehicle: Klucel (hydroxypropylcellulose) (HPC)) is 106 % of control; the T/C (endpoint: mean survival time, dose: 75.0 mg/kg/injection, schedule: Q01DX009 (ip), vehicle: Klucel (hydroxypropylcellulose) (HPC)) was 124 % of control.

As to `CCN(C(=O)Nc1ccccc1OC)c1ccccc1`, the T/C is, setting by setting: under setting [1], 98 % of control; under setting [2], 98 % of control; under setting [3], 93 % of control.

With `COc1ccc([N+](=O)[O-])cc1NC(=O)Nc1cccc(C(F)(F)F)c1`, the T/C by setting is: (endpoint: mean survival time, dose: 50.0 mg/kg/injection, schedule: Q01DX001 (ip), vehicle: Klucel (hydroxypropylcellulose) (HPC)) 101 % of control; (endpoint: mean survival time, dose: 100.0 mg/kg/injection, schedule: Q01DX001 (ip), vehicle: Klucel (hydroxypropylcellulose) (HPC)) 96 % of control; (endpoint: mean survival time, dose: 200.0 mg/kg/injection, schedule: Q01DX001 (ip), vehicle: Klucel (hydroxypropylcellulose) (HPC)) 93 % of control.

Consider `O.[Cl][Pt].[NH-]CC[S-]`, for which the T/C was 90 % of control (endpoint: mean survival time, dose: 12.5 mg/kg/injection, schedule: Q04DX003 (ip), vehicle: distilled water + Tween-80); 102 % of control (endpoint: mean survival time, dose: 25.0 mg/kg/injection, schedule: Q04DX003 (ip), vehicle: distilled water + Tween-80); 95 % of control (endpoint: mean survival time, dose: 50.0 mg/kg/injection, schedule: Q04DX003 (ip), vehicle: distilled water + Tween-80); 100 % of control (endpoint: mean survival time, dose: 100.0 mg/kg/injection, schedule: Q04DX003 (ip), vehicle: distilled water + Tween-80).

Consider `Cc1cc(=O)n(C)c2c(C)cccc12`, for which the T/C reads like this: under setting [4], 98 % of control; under setting [5], 92 % of control; under setting [6], 95 % of control.

In the case of `O=C(Nc1ccc(C2=NCCCN2)cc1)c1ccc(NC(=O)c2ccc(C3=NCCCN3)cc2)cc1`, the T/C (endpoint: mean survival time, dose: 1.0 mg/kg/injection, schedule: Q01DX008 (iv), vehicle: other) was 95 % of control; the T/C (endpoint: mean survival time, dose: 2.0 mg/kg/injection, schedule: Q01DX008 (iv), vehicle: other) was 107 % of control; the T/C (endpoint: mean survival time, dose: 4.0 mg/kg/injection, schedule: Q01DX008 (iv), vehicle: other) is 189 % of control.

Turning to `C1CC[N-]CC1.CC(=N\O)/C(C)=N/O.CC(=N\O)/C(C)=N/O.C[CH-]C(C)O.[Co+2]`, the T/C (endpoint: mean survival time, dose: 6.25 mg/kg/injection, schedule: Q04DX003 (ip), vehicle: saline) was 97 % of control.

`C[Si](C)(C)O/C=C1\CCCCC1=O`: the T/C is 98 % of control and 100 % of control (endpoint: mean survival time, dose: 6.25 mg/kg/injection, schedule: Q01DX009 (ip), vehicle: saline with Tween-80); 96 % of control and 98 % of control under setting [7]; 91 % of control and 100 % of control (endpoint: mean survival time, dose: 25.0 mg/kg/injection, schedule: Q01DX009 (ip), vehicle: saline with Tween-80); 93 % of control and 100 % of control under setting [8]; 93 % of control and 102 % of control under setting [4]; 105 % of control under setting [5].

As for `O=C1NC(=O)C2=C1C1(Cl)C(Cl)=C(Cl)C2(Cl)C1(Cl)Cl`, the T/C under setting [1] is 103 % of control, the T/C under setting [2] is 101 % of control and the T/C under setting [3] was 103 % of control.

Turning to `CCOc1ccc(NC(=S)NC(=O)/C=C/c2ccccc2)cc1`, the T/C is, setting by setting: under setting [7], 93 % of control and 96 % of control; (endpoint: mean survival time, dose: 100.0 mg/kg/injection, schedule: Q01DX001 (ip), vehicle: saline with Tween-80) 95 % of control; under setting [9], 95 % of control and 98 % of control; under setting [1], 93 % of control; (endpoint: mean survival time, dose: 200.0 mg/kg/injection, schedule: Q01DX001 (ip), vehicle: saline with Tween-80) 100 % of control; under setting [10], 94 % of control and 97 % of control. Also, the T/C is, setting by setting: under setting [2], 96 % of control; (endpoint: mean survival time, dose: 400.0 mg/kg/injection, schedule: Q01DX001 (ip), vehicle: saline with Tween-80) 93 % of control; under setting [6], 108 % of control and 111 % of control; under setting [11], 94 % of control and 101 % of control; under setting [3], 96 % of control.

`CC1(C)C(=O)OC(n2ccc(=O)[nH]c2=O)C1=O` (stereo not given): the T/C is 103 % of control (endpoint: median survival time, dose: 12.5 mg/kg/injection, schedule: Q01DX005 (ip), vehicle: saline); 103 % of control (endpoint: median survival time, dose: 25.0 mg/kg/injection, schedule: Q01DX005 (ip), vehicle: saline); 101 % of control (endpoint: median survival time, dose: 50.0 mg/kg/injection, schedule: Q01DX005 (ip), vehicle: saline); 103 % of control (endpoint: median survival time, dose: 100.0 mg/kg/injection, schedule: Q01DX005 (ip), vehicle: saline); 103 % of control (endpoint: median survival time, dose: 200.0 mg/kg/injection, schedule: Q01DX005 (ip), vehicle: saline).

For the molecule `CC1(C)C(=O)C(Cl)C(c2ccccc2)=C1c1ccccc1` (stereo not given), the T/C was 101 % of control under setting [9], 96 % of control under setting [10] and 101 % of control under setting [11].

Turning to `O=C(C=C(C(F)(F)F)C(F)(F)F)c1cccc([N+](=O)[O-])c1`, the T/C runs as follows: (endpoint: mean survival time, dose: 12.5 mg/kg/injection, schedule: Q04DX003 (ip), vehicle: saline with Tween-80) 103 % of control; (endpoint: mean survival time, dose: 25.0 mg/kg/injection, schedule: Q04DX003 (ip), vehicle: saline with Tween-80) 96 % of control.

Turning to `CCN=C(N)C(N)=NCC` (tested in a mixture with another compound), the T/C runs as follows: (endpoint: mean survival time, dose: 25.0 mg/kg/injection, schedule: Q04DX002 (ip), vehicle: saline with Tween-80) 98 % of control; (endpoint: mean survival time, dose: 50.0 mg/kg/injection, schedule: Q04DX002 (ip), vehicle: saline with Tween-80) 98 % of control; under setting [9], 93 % of control and 98 % of control; under setting [10], 96 % of control and 87 % of control; under setting [11], 93 % of control.

Regarding `N#Cc1ccc(OCc2nc(N)nc(N)c2-c2ccc(Cl)c(Cl)c2)cc1`, the T/C by setting is: under setting [8], 90 % of control; under setting [4], 102 % of control; under setting [5], 110 % of control.

With `O=[N+]([O-])c1ccc(OCCCBr)cc1`, the T/C is 91 % of control under setting [1], 91 % of control under setting [2] and 91 % of control under setting [3].

For `O=C1CCCN1C1CC2c3ccccc3C1c1cccc[n+]12` (stereo not given), the T/C runs as follows: (endpoint: mean survival time, dose: 5.0 mg/kg/injection, schedule: Q04DX003 (ip), vehicle: saline with Tween-80) 95 % of control; (endpoint: mean survival time, dose: 10.0 mg/kg/injection, schedule: Q04DX003 (ip), vehicle: saline with Tween-80) 95 % of control; (endpoint: mean survival time, dose: 20.0 mg/kg/injection, schedule: Q04DX003 (ip), vehicle: saline with Tween-80) 97 % of control.

As to `CN(C)CCNCc1ccc2c(c1)OCO2`, the T/C (endpoint: mean survival time, dose: 25.0 mg/kg/injection, schedule: Q01DX001 (ip), vehicle: saline) is 102 % of control; the T/C (endpoint: mean survival time, dose: 50.0 mg/kg/injection, schedule: Q01DX001 (ip), vehicle: saline) was 102 % of control; the T/C (endpoint: mean survival time, dose: 100.0 mg/kg/injection, schedule: Q01DX001 (ip), vehicle: saline) is 102 % of control.

Turning to `CCCCCCCCC(C(=O)c1ccccc1)=C(C(F)(F)F)C(F)(F)F`, the T/C under setting [4] was 91 % of control.

Source of the values: PubChem BioAssay AID256 (DTP/NCI, 2004).
